pKi: −log10 of the molar value.
Biological target: T1, CCR2 (Homo sapiens, UniProt P41597)
T1 construct: Membranes were prepared from THP-1 cells; endogenous in cells; host or cells: THP-1 (human acute monocytic leukaemia cells), membrane preparation
Experiment: CCR2 receptor membrane binding assay ([125I]MCP-1, THP-1 membranes, SPA beads)
Conditions: THP-1 cell membranes, [125I]MCP-1 displacement, bound radioactivity after 8 h; read-out: hKi
Experimental: The above exemplary substances have been tested for binding to CCR2 using a binding assay as outlined herein below:
THP-1 cells (human acute monocytic leukaemia cells) were cultured under standardized conditions at 37° C. and 5% CO2 in a humidified incubator. THP-1 cells were cultivated in RPMI 1640 medium (Gibco 21875) containing 1% MEM-NEAA (Gibco 11140) 2 mM L-glutamine, 1.5 g/L sodium bicarbonate, 4.5 g/L glucose, 10 mM HEPES and 1.0 mM sodium pyruvate, 90%; 10% fetal calf serum (FCS Gibco 10500-064). Membranes were prepared from THP-1 cells. THP-1 cells were centrifuged at 300×g at 4° C. for 10 min. The cell pellet was resuspendet in Phosphate Buffer Saline (PBS, including 10 μM Pefabloc and a protease inhibitor mix ‘complete’, Boehringer Mannheim (1 tablet/50 ml)), to a concentration of […]. The membrane preparation was performed by disrupting the cells by nitrogen […] (at 50 bar, for 1 h) in a “Nitrogen Bombe” (Parr Instrument). Cell debris was removed by centrifugation (800×g at 4° C., 1 min). The supernatant was centrifuged at 80000×g, 4° C. for 30 min to sediment the cell membranes. Usually 50 mg of protein (Bradford assay) were yielded from 1×10E9 cells. The membranes were resuspendet in 25 mM HEPES, 25 mM MgCl2, 1 mM CaCl2, 10% Glycerine for storage in aliquots at −80° C. in 25 mM HEPES, 25 mM MgCl2, 1 mM CaCl2, 10% Glycerine and stored at −80° C.
Perkin Elmer NEX 332 Jod 125 MCP-1, Stock: 2200 Ci/mmol solved in 2000 μl assay buffer, stored at −20° C. THP-1 membrane were adjusted with 25 mM HEPES, pH 7.2; 5 mM MgCl2; 0.5 mM CaCl2; 0.2% BSA assay buffer to a concentration of 2.5 μg/15 Amersham Biosciences PVT-WGA Beads (RPNQ0001) were adjusted with assay buffer to a concentration of 0.24 mg/30 μl. For preparation of the membrane-bead-suspension membranes and beads were incubated for 30 min at RT under rotation (60 rpm) with a ratio of 1:2. Test compounds dissolved in 100% DMSO to a concentration of 10 mM and are further diluted with 100% DMSO to 1 mM. All additional compound dilutions were obtained with assay buffer, final 1% DMSO. Compounds, membrane-bead-suspension and [125I]MCP-1 (ca. 25000 cpm/10 μl) were incubated. Bound radioactivity was determined by scintillation counter after 8 h. Determination of affinity of test compounds (dissociation constant hKi) is calculated by iterative fitting of experimental data using the “easy sys” program, which is based on law of mass action (Schittkowski K. (1994), Numerische Mathematik, Vol. 68, 129-142).

T1 sequence (P41597 whole entry): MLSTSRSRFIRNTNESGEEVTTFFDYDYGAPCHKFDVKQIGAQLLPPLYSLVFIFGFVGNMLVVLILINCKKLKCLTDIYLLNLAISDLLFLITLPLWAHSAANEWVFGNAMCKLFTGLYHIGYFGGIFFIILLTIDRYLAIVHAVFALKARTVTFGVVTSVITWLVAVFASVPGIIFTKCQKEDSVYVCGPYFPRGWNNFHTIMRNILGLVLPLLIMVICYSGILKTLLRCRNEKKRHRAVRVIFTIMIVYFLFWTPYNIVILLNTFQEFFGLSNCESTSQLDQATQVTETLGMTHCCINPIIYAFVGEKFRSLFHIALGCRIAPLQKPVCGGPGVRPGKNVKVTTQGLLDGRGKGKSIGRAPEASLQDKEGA

Point of comparison: `CO[C@@H]1COCC[C@@H]1NC1CCN(C(=O)c2cncc(Nc3ccc(Cl)c(Cl)c3)c2C)CC1` [Example 6a], pKi 7.74. Against it:
- Cc1c(NCc2ccc(C(C)(C)C)cc2)cncc1C(=O)N1CCC(N2CCC(N(C)S(C)(=O)=O)CC2)CC1 [Example 1] — 1.51 log units lower, 6.23
- Cc1c(NC[C@H]2CCC[C@@H](c3ccccc3)C2)cncc1C(=O)N1CCC(N2CCC(N(C)S(C)(=O)=O)CC2)CC1 [Example 2] — 0.36 log units lower, 7.38
- CO[C@@H]1COCC[C@@H]1NC1CCN(C(=O)c2cncc(NC[C@H]3CCC[C@@H](c4ccc(C)cc4)O3)c2C)CC1 [Example 3] — 0.48 log units higher, 8.22
- CO[C@H]1COCC[C@H]1NC1CCN(C(=O)c2cncc(NC[C@H]3CCC[C@@H](c4ccc(OC(F)(F)F)cc4)O3)c2C)CC1 [Example 4] — 0.96 log units higher, 8.70
- CO[C@@H]1COCC[C@@H]1NC1CCN(C(=O)c2cncc(NC[C@H]3CCC[C@@H](c4ccc(OC(F)(F)F)cc4)O3)c2C)CC1 [Example 5] — 1.26 log units higher, 9.00
- CO[C@H]1COCC[C@H]1NC1CCN(C(=O)c2cncc(NC[C@H]3CCC[C@@H](c4ccc(C)cc4)O3)c2C)CC1 [Example 6] — within 0.2 log units, 7.68
- CO[C@H]1COCC[C@H]1NC1CCN(C(=O)c2cncc(Nc3ccc(Cl)c(Cl)c3)c2C)CC1 [Example 6b] — 0.67 log units lower, 7.07
- CO[C@@H]1COCC[C@@H]1NC1CCN(C(=O)c2cncc(NCc3ccc(Cl)c(F)c3)c2C)CC1 [Example 6c] — 0.86 log units lower, 6.88
- CO[C@@H]1COCC[C@@H]1NC1CCN(C(=O)c2cncc(NCc3ccc(C(F)(F)F)c(Cl)c3)c2C)CC1 [Example 6d] — 0.60 log units lower, 7.14
- CO[C@H]1COCC[C@H]1NC1CCN(C(=O)c2cncc(NC[C@H]3CCC[C@@H](c4ccc(C(F)(F)F)cc4)O3)c2)CC1 [Example 7] — 0.34 log units lower, 7.40
- O=C(c1cncc(NC[C@H]2CCC[C@@H](c3ccc(C(F)(F)F)cc3)O2)c1)N1CCC(NC2CCOCC2F)CC1 (some centres unmarked) [Example 8] — 0.74 log units lower, 7.00
- CO[C@@H]1COCC[C@@H]1NC1CCN(C(=O)c2cncc(NC[C@H]3CCC[C@@H](c4ccc(C(F)(F)F)cc4)O3)c2)CC1 [Example 9] — within 0.2 log units, 7.57
- CO[C@@H]1COCC[C@@H]1NC1CCN(C(=O)c2cncc(NC[C@H]3CCC[C@@H](c4ccc(C)cc4)O3)c2)CC1 [Example 10] — 0.77 log units lower, 6.97
